Source: US6730666B1, “Pharmaceutical compositions comprising porphyrins and some novel porphyrin derivatives” (Yeda Research and Development Co. Ltd., priority 1998, dated 2004)
Entries after “also recorded” stand apart in the source; their conditions may differ.

Key:
FGF receptor = FGF receptor (Mus musculus, UniProt P16092); assay: In vitro inhibition of bFGF binding (assay format not stated)
[1] = tested on: Lewis lung carcinoma (LLC) lung metastasis; assay: Lewis lung carcinoma lung metastasis model; format: in vivo, C57 black mice; design: Inhibitory activity in vivo, LLC tumor model (as % of total inhibition): reference not given here
Protocol: (vii) Lewis lung carcinoma tumor assay. Murine Lewis lung carcinoma (LLC) D122 cells (1×10^6 cells/[…] PBS) were injected into the foot pads of 10-week old C57 black mice (O'Reilly et al, 1994). Twenty five μg/g of body mass of porphyrin or corrole compound dissolved in PBS were injected IP twice a week to the treated group, and tumor size was measured periodically in order to follow primary tumor formation. In order to evaluate inhibition of lung metastasis by porphyrin or corrole compound, the primary tumors were allowed to develop over a period of six weeks to a volume of approximately 8 mm^3; after which the tumors were removed and metastases were allowed to develop for four weeks. During this time the treated group received 25 μg/g of body mass of porphyrin or corrole compound IP twice a week. Subsequently the mice were sacrificed, dissected and the lungs removed and photographed. The extent of lung metastasis was measured by weighing the lungs.
After establishing the capacity of P1 to inhibit primary tumor growth, the capacity of P1 to inhibit lung metastasis formation was measured as described in Methods, section (vi). Mice were injected with LLC cells (200,000 cells per mouse) into the foot pad and primary tumors were allowed to develop over a period of 3 to 4 weeks to a volume of approximately 8 mm^3. Subsequently, primary tumors were removed through amputation and lung metasases were allowed to develop for four weeks before the mice were sacrificed. The extent of lung metastasis at this point was examined by gross morphological examination and by determining the gain in lung weight. […] In order to quantitate the results from these experiments, the lungs from all mice were weighed and evaluated for the extent of metastatic growth.

soluble FGFR-1 (FRAP) = molecular target: T1, soluble FGFR-1 (FRAP) (Mus musculus, UniProt P16092); assay: Binding of 125I-bFGF to immobilized soluble FGFR-1 (FRAP), cell-free
T1 sequence (P16092 22-376 limits assumed): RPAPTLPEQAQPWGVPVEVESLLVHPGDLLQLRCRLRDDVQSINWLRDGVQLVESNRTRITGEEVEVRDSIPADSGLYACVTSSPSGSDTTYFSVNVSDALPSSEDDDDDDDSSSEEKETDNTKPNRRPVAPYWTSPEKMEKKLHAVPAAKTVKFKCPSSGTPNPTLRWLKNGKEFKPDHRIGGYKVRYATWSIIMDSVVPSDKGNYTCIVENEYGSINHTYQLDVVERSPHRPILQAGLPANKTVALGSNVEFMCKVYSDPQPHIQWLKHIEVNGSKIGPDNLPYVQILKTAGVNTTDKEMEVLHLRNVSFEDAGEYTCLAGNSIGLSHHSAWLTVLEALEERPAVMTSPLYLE
From the text: First we utilized a cell-free system, measuring the binding of radiolabeled bFGF to a dimeric soluble FGFR-1 fused to alkaline phosphatase. […] As a: second experimental model, we used CHO cells deficient in heparan sulfate and genetically engineered to express FGFR-1 (Methods, section (iv)).

FGFR-1 = FGFR-1 (Mus musculus, UniProt P16092); assay: Binding of 125I-bFGF to CHO cells expressing FGFR-1; settings: read-out: Cellular receptor binding (IC50); binding of FGF to FGFR; Methods section (iv)
Protocol: The binding medium was discarded and the cells were washed once with ice-cold DMEM/BSA and twice with cold PBS (pH 7.5) containing 1.6M NaCl. […] Non-specific binding was determined in the presence of a 100-fold excess of unlabeled bFGF.
First we utilized a cell-free system, measuring the binding of radiolabeled bFGF to a dimeric soluble FGFR-1 fused to alkaline phosphatase. The soluble FRAP was immobilized using an anti-alkaline phosphatase antibody prebound to agarose-protein A beads (see Methods, section (iii)). As a: second experimental model, we used CHO cells deficient in heparan sulfate and genetically engineered to express FGFR-1 (Methods, section (iv)).

FGFR-3 = molecular target: T2, FGFR-3 (Homo sapiens, UniProt P22607); assay: Binding of 125I-FGF9 to immobilized soluble FGFR-3 (FR-3-AP); settings: FIG. 11
T2 construct: soluble FGFR-3 ectodomain alkaline phosphatase fusion protein (FR-3-AP); made in house; host or cells: NIH 3T3 cells (conditioned medium)
T2 sequence (P22607 23-375 limits assumed): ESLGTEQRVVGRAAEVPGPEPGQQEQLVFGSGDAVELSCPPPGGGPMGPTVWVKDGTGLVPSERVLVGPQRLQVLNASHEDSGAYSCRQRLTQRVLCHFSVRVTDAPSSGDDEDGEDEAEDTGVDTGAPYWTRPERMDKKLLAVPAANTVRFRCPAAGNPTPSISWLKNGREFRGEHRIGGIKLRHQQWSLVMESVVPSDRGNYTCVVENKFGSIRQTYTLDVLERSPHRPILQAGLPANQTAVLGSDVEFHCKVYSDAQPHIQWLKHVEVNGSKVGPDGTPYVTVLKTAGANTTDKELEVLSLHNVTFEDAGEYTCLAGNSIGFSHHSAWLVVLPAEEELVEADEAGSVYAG
Protocol: Incubations were performed in the presence of 100 ng/ml heparin and increasing concentrations of porphyrins. […] Results represent the mean value in one of at least two independent experiments.
(iii) Binding of ^125I-bFGF or ^125I-FGF9 to s luble FGFR-1 or FGFR-3. Conditioned medium from NIH 3T3 cells secreting soluble FRAP or FGFR-3 FR-3-AP, was incubated for 45 min at room temperature with rabbit anti-human placental AP antibodies (generated as described in Ornitz et al, 1991) prebound to agarose-protein A beads Pierce). The FGFR-1 or FGFR-3-coupled beads were washed three times with 1 ml HNTG and incubated with 2 ng/ml of ^125I-FGF, 1 μg/ml of heparin and porphyrin/corrole compound at different concentrations for 1 h at room temperature. High affinity-bound ^125I-bFGF was determined by counting of the samples in a γ-counter.
Thus, the compounds were tested for their capacity to inhibit binding of a soluble FGFR-3 ectodomain alkaline phosphatase fusion protein (FR-3-AP) to FGF-9, utilizing a cell free system, similar to the one described for FGFR-1 in Example 1 above, and measuring the binding of radiolabeled ^125I-FGF-9 to soluble FGFR-3.

FGFR-1, sequence (P16092 22-822): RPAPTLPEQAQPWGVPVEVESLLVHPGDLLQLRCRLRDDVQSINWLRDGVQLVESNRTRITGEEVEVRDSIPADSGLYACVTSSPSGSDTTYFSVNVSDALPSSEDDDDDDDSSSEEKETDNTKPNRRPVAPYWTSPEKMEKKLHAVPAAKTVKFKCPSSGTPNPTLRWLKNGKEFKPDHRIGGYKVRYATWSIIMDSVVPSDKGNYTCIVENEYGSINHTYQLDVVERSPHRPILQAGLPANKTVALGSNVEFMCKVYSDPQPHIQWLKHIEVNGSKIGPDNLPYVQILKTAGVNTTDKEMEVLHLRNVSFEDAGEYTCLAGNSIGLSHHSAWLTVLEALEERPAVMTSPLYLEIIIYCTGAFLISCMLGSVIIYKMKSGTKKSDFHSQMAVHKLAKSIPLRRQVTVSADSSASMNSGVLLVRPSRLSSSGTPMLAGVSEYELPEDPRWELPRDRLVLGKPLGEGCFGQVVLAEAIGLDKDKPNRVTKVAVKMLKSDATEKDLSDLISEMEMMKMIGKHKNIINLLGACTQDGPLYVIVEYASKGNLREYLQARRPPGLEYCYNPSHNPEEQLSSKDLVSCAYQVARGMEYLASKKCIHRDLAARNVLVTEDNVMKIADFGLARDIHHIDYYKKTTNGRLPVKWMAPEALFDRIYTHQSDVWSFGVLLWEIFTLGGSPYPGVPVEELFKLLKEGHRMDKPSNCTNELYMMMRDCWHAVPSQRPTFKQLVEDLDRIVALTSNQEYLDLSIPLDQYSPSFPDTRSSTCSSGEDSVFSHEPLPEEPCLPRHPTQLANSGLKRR
FGF receptor, sequence (P16092 22-822): as above

Row | IC50 (FGFR-1) [nM] | Relative potency in FGF-9/FGFR-3 soluble receptor assay, in words (FGFR-3) | IC50 (soluble FGFR-1 (FRAP); read-out: Soluble receptor binding (IC50), binding of FGF to FGFR, Methods section (iii)) [nM] | Structure (SMILES) | Activity in vitro in words (inhibition of bFGF binding) (FGF receptor) | Inhibition of lung metastasis in LLC model, in words ([1]; 25 μg/g of body mass IP) | Inhibitory activity in vivo, LLC tumor model (as % of total inhibition) ([1]; 25 μg/gram, LLC murine tumor model, lung metastasis) [%] | Inhibition of bFGF binding to immobilized FRAP, in words (soluble FGFR-1 (FRAP); FIG. 8B)
1 | – | – | – | C[n+]1ccccc1-c1c(F)c(F)c(-c2c3nc(c(-c4c(F)c(F)c(-c5cccc[n+]5C)c(F)c4F)c4ccc([nH]4)c(-c4c(F)c(F)c(-c5cccc[n+]5C)c(F)c4F)c4nc(c(-c5c(F)c(F)c(-c6cccc[n+]6C)c(F)c5F)c5ccc2[nH]5)C=C4)C=C3)c(F)c1F [Compound P20, 5,10,15,20-Tetrakis[4-(N-methyl-2-pyridylium) 2,3,5,6-tetrafluoro-phenyl]-21H,23H-porphine tetraiodide] | significantly more active than P1 | highly active in vivo; also recorded: more active than P1 | 150 | inhibit bFGF binding in vitro
2 | 120 | more potent | 80 | C[N+](C)(C)c1c(F)c(F)c(-c2c3nc(c(-c4c(F)c(F)c([N+](C)(C)C)c(F)c4F)c4ccc([nH]4)c(-c4c(F)c(F)c([N+](C)(C)C)c(F)c4F)c4nc(c(-c5c(F)c(F)c([N+](C)(C)C)c(F)c5F)c5ccc2[nH]5)C=C4)C=C3)c(F)c1F.O=S(=O)([O-])C(F)(F)F.O=S(=O)([O-])C(F)(F)F.O=S(=O)([O-])C(F)(F)F.O=S(=O)([O-])C(F)(F)F [Compound P15, 5,10,15,20-Tetrakis(2,3,5,6-tetrafluoro-4-trimethyl-ammonio-phenyl)-21H,23H-methyl-porphine tetra-trifluoromethylsulfonate] | – | – | – | –
